Publication PMC3958311 (EMBO Molecular Medicine, 2014)
Converted amounts (≈) assume the structure as drawn. “And” between values parts separate entries of the source, which are not always exact repeats. Equal values may be shown once.

Columns and labels:
M. tuberculosis NTB1 = assay type: cell-based, Mycobacterium tuberculosis
M. tuberculosis H37Rv = conditions: stated in the Introduction; ref Makarov et al, 2009; cited from earlier work

Compound	MIC99 (M. tuberculosis NTB1) [µg/mL]	fold increased resistance conferred by the Cys387Ser mutation in DprE1 (M. tuberculosis NTB1)	MIC (M. tuberculosis H37Rv)
C[C@H]1COC2(CCN(c3nc(=O)c4cc(C(F)(F)F)cc([N+](=O)[O-])c4s3)CC2)O1 [BTZ043, 2-[(2S)-2-methyl-1,4-dioxa-8-azaspiro[4.5]dec-8-yl]-8-nitro-6-(trifluoromethyl)-4H-1,3-benzothia-zin-4-one]	25 (≈ 58 µM)	> 10 000 fold	1 ng/ml and 2.3 nM
O=c1nc(N2CCN(CC3CCCCC3)CC2)sc2c([N+](=O)[O-])cc(C(F)(F)F)cc12 [PBTZ169]	>100	> 10 000 fold	–
CO[C@H]1/C=C/O[C@@]2(C)Oc3c(C)c(O)c4c(O)c(c(/C=N/N5CCN(C)CC5)c(O)c4c3C2=O)NC(=O)/C(C)=C\C=C\[C@H](C)[C@H](O)[C@@H](C)[C@@H](O)[C@@H](C)[C@H](OC(C)=O)[C@@H]1C [RIF, rifampicin]	0.001 (≈ 0.00122 µM)	–	–
moxifloxicin [MXF]	0.03	–	–
